Laboratory results as given in PubChem BioAssay (NCI).
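A five-concentration, 48-hour dose response in 96-well plates underlies each endpoint, interpolated linearly between surrounding concentrations. GI50 = concentration required for 50% inhibition of growth. The concentration for full growth arrest is given as TGI.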

Experiments:
Assay in all cases: NCI anticancer screen, dose series, 48 h
OVCAR-4 ovarian = test system: OVCAR-4 ovarian
SK-OV-3 ovarian = test system: SK-OV-3 ovarian
SF-268 CNS = test system: SF-268 CNS
HCC-2998 colon = test system: HCC-2998 colon
U251 CNS = test system: U251 CNS
NCI-H23 lung = test system: NCI-H23 lung
A498 renal = test system: A498 renal
CAKI-1 renal = test system: CAKI-1 renal
A549 NSCLC = test system: A549 NSCLC
CCRF-CEM leukemia = test system: CCRF-CEM leukemia

SMILES | GI50 (OVCAR-4 ovarian) [µM] | TGI (OVCAR-4 ovarian) [µM] | GI50 (SK-OV-3 ovarian) [µM] | TGI (SK-OV-3 ovarian) [µM] | GI50 (SF-268 CNS) [µM] | TGI (SF-268 CNS) [µM] | GI50 (HCC-2998 colon) [µM] | TGI (HCC-2998 colon) [µM] | GI50 (U251 CNS) [µM] | TGI (U251 CNS) [µM] | GI50 (NCI-H23 lung) [µM] | TGI (NCI-H23 lung) [µM] | GI50 (A498 renal) [µM] | TGI (A498 renal) [µM] | GI50 (CAKI-1 renal) [µM] | TGI (CAKI-1 renal) [µM] | GI50 (A549 NSCLC) [µM] | TGI (A549 NSCLC) [µM] | TGI (CCRF-CEM leukemia) [µM] | GI50 (CCRF-CEM leukemia) [µM]
Cn1c(=O)c(Oc2cccc(F)c2)cc2cnc(NC3CCOCC3)nc21 | > 22.6 | > 25 | > 25 | > 25 | > 25 | > 25 | > 25 | > 25 | > 25 | > 25 | > 25 | > 25 | 8.11 | > 25 | > 22.4 | > 25 | > 25 | > 25 | – | –
CC1CCc2c(sc3ncnc(N/N=C/c4ccc(Cl)c(Cl)c4)c23)C1 (stereo unspecified) | – | – | – | 89.6 | – | > 100 | – | > 100 | – | 20 | – | 79.8 | – | – | – | 56.6 | – | 34.4 | 41.6 | –
CO/C(=N\N=C\c1ccc(Cl)cc1Cl)c1ccncc1 | – | > 10 | – | – | – | > 10 | – | – | – | > 10 | – | > 10 | – | – | – | > 10 | – | > 10 | > 10 | –
NC1C2C(CC(=O)O)OCC=C3CN4CCC1(C(=O)C(=O)O)C4CC32 (stereo unspecified) | – | > 100 | – | > 100 | – | > 100 | – | – | – | > 100 | – | > 100 | – | > 100 | – | > 100 | – | > 100 | > 100 | –
CN(C)/C=C/c1nnnn1-c1ccc(Cl)cc1 | 28.2 | 80.4 | 24.1 | 81.6 | 3.01 | 19.8 | 18.3 | 34.5 | 6.5 | > 100 | 11.8 | 29.8 | 30.5 | 87.1 | – | – | 30.5 | > 100 | 42.4 | 4.65
Cc1cc2c(cc1C)[n+](=O)c(C(=O)/C=C/c1ccc(Cl)cc1)c(C)n2[O-] | – | 81.9 | – | > 100 | – | – | – | 46.1 | – | 67.9 | – | 65.6 | – | 75.9 | – | > 100 | – | 80.4 | > 100 | –
NC1CCCCC1N.O=C([O-])P(=O)([O-])[O-].[Na+].[Pt+4] (stereo unspecified) | > 100 | > 100 | > 100 | > 100 | > 100 | > 100 | – | – | > 100 | > 100 | > 100 | > 100 | > 100 | > 100 | – | – | > 100 | > 100 | > 100 | > 100
CCN(CC)CC(=O)/C=C/c1ccc(C)cc1 | – | 29.3 | – | 82.5 | – | 54.8 | – | 31.7 | – | 30.1 | – | > 100 | – | > 100 | – | 31.7 | – | 60.8 | – | –
CC(C)COC(=O)N1N=NC2C3OC(CC3=O)C21 (stereo unspecified) | – | > 100 | – | > 100 | – | > 100 | – | > 100 | – | > 100 | – | > 100 | – | > 100 | – | > 100 | – | – | > 100 | –
C=C1C(=O)O[C@H]2[C@H]1CC/C(CNS(=O)(=O)c1ccc3ccccc3c1)=C\CC[C@@]1(C)O[C@@H]21 | 4.2 | 18.7 | 16.3 | 30 | 2.72 | 10.1 | 3.68 | 11.3 | 8.29 | 21.1 | 2.03 | 6.14 | 10.2 | 21.8 | – | – | 10.9 | 25 | 2.31 | 0.399
O=C1CCC2CCc3cccc4oc1c2c34 (stereo unspecified) | – | > 100 | – | > 100 | – | – | – | > 100 | – | > 100 | – | > 100 | – | > 100 | – | > 100 | – | > 100 | > 100 | –
CC1=C(C)CC2(SC1)C(=O)c1ccccc1C2=O | – | > 100 | – | > 100 | – | > 100 | – | > 100 | – | > 100 | – | – | – | > 100 | – | > 100 | – | > 100 | > 100 | –
O=C1CSC2=NCC3(NN12)c1ccccc1-c1ccccc13 | – | > 10 | – | > 10 | – | > 10 | – | > 10 | – | – | – | > 10 | – | – | – | > 10 | – | > 10 | > 10 | –
CSc1ccc(-c2cc(-c3ccc(NC(=O)CCCN4CCCC4)cc3)nc(-c3ccc(NC(=O)CCCN4CCCC4)cc3)c2)cc1 | 2.91 | 12.9 | 2.97 | 8.74 | 2.15 | 5.01 | 2.49 | 6.5 | 1.64 | 3.12 | 1.67 | 3.16 | – | – | 4.94 | 21.3 | 1.67 | 3.17 | 3.61 | 1.9
Cc1[nH]c(C(=O)Nc2ccc(C(=O)N3CCNCC3)cc2OC(C)C)c(Cl)c1Cl | 3.57 | 11.8 | – | – | 1.85 | 3.81 | 1.78 | 3.38 | 1.77 | 3.46 | 1.95 | 4.21 | 11.2 | 24.7 | 3.61 | 15.1 | – | – | 6.94 | 2.57
N=S(=O)(c1ccccc1)c1ccccc1[N+](=O)[O-] (stereo unspecified) | – | > 100 | – | > 100 | – | – | – | > 100 | – | > 100 | – | > 100 | – | > 100 | – | > 100 | – | > 100 | > 100 | –
O=C1O[C@H](C(Cl)(Cl)Cl)N2CCCC12 (stereo partly specified) | – | > 100 | – | > 100 | – | > 100 | – | – | – | > 100 | – | > 100 | – | > 100 | – | > 100 | – | > 100 | > 100 | –
O=c1[nH]c(-c2ccccc2)nc2ccc(Cl)cc12 | – | > 100 | – | – | – | > 100 | – | > 100 | – | > 100 | – | > 100 | – | – | – | > 100 | – | > 100 | – | –
CCOP(=O)(OCC)/C(=C\N1C(=O)CC(=O)NC1=S)C(=O)OC | – | > 100 | – | > 100 | – | > 100 | – | > 100 | – | > 100 | – | > 100 | – | > 100 | – | > 100 | – | > 100 | – | –
Nc1ccc(N=Nc2ccccc2)c(N)n1 | – | – | 30.1 | > 100 | 16.8 | 72.9 | 24.8 | 58.8 | 29.8 | > 100 | 31.9 | > 100 | 12.9 | 39.8 | – | – | 27.4 | > 100 | > 100 | 29.4
